These results are taken from patent US20250002512A1, “NOVEL ANTI-[…] NE[…] AND THERAPEUTIC USES THEREOF” (MARVEL BIOTECHNOLOGY, priority 2021, published 2025).

One experiment deals with male CD-1 mice. The experiment can be described thus: forced swim test (FST), preclinical model of depression. The experiment is classed as in vivo. Particulars: n=8/group, 50 mgs/kg orally once a day for seven days, FST on seventh day; for immobilization time (2-6 minutes): compared with fluoxetine 30 mg/kg, one-way ANOVA, Fisher LSD, FIG. 1; for latency to immobility: compared with vehicle control, FIG. 2. The method, then: The forced swim test (FST) is a widely accepted pre-clinical model to test the anti-depressive effects of molecules (Can A, Dao D T, Arad M, Terrillion C E, Piantadosi S C, Gould T D. The Mouse Forced Swim Test. J Vis Exp. 2012; (59): 3638. doi: 10.3791/3638).
Briefly, male CD-1 mice (approximately 25-35 g, n=8/group) were dosed orally once a day with either vehicle (2% aqueous DMSO, 0.5% carboxymethyl cellulose), compound 1 (50 mgs/kg in vehicle), compound 2 (50 mgs/kg in vehicle) or fluoxetine (aka. Prozac®, 30 mg/kg in vehicle) for seven days. Seven days is a comparatively short time to observe an anti-depressant effect with an orally dosed drug. On the seventh day, animals were tested in the FST and observed for abnormal behaviours (e.g. hallucinating).

Experiment [1] has as its target brain derived neurotrophic factor (BDNF) receptor TrkB (Homo sapiens, UniProt Q16620). The following applies: cited from Shen J et al.; cited from earlier work.

brain derived neurotrophic factor (BDNF) receptor TrkB, sequence (Q16620 32-822): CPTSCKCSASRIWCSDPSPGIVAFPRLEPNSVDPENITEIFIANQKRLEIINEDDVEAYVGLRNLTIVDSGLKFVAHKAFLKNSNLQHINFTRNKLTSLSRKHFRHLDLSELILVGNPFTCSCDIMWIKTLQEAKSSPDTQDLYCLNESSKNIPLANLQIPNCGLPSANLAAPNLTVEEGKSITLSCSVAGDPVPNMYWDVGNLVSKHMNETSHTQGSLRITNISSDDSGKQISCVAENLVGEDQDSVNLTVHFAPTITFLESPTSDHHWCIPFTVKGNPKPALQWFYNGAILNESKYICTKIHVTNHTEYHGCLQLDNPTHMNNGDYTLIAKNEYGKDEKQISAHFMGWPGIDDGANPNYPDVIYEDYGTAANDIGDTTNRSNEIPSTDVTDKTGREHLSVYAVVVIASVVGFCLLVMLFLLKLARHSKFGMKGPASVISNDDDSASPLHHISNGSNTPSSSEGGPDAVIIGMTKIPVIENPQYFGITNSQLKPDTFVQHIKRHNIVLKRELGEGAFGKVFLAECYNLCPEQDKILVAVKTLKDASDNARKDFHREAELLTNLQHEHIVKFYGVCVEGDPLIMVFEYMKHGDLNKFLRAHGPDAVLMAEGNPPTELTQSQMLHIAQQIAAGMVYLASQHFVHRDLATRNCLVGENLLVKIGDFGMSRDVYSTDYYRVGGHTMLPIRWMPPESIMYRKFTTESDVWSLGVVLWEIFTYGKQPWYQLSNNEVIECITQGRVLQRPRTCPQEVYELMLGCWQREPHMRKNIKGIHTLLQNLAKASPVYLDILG

For `O=C(CN1CCCC1=O)NCCc1c[nH]c2ccc(OP(=O)(O)O)cc12` [Compound 2, N-{2-[5-(dihydroxyphosphoryloxy)-1H-indol-3-yl]ethyl}(2-oxo-1-pyrrolidinyl) acetamide], in the experiment on male CD-1 mice, the “immobilization time (2-6 minutes)” value was “significantly better than fluoxetine” and the latency to immobility entry is listed as “better than vehicle control”. In the same order, the values of `O=C1NCCCC1C(=O)NCCc1c[nH]c2ccc(OP(=O)(O)O)cc12` (centres unmarked) [Compound 1, N-{2-[5-(Dihydroxyphosphoryloxy)-1H-indol-3-yl]ethyl}-2-oxo-3-piperidinecarboxamide] are “significantly better than fluoxetine” and “better than vehicle control”. Take “N-[2-(5-hydroxy-1H-indol-3-yl)ethyl]-2-oxopiperidine-3-carboxyamide [HIOC]”: the “activation of BDNF receptor TrkB” value in experiment [1] is listed as “activate”.
